Columns and labels:
CYP3A [1] = conditions: both, human, plasma, po, 2 mg, probe midazolam
[2] = cited from earlier work
CYP3A [3] = tested on: CYP3A; design: species or system human; conditions: refined to recover observed midazolam AUCR; 1/18 of the in vitro k inact
[4] = PBPK model; cited from earlier work
infants with Type 1 SMA = conditions: cited from earlier work
[5] = Clinical DDI study in healthy adults; type: in vivo, human; conditions: for AUC(0-t) / Cmax: both, human, plasma, oral

| Structure (SMILES) | AUC(0-t) (CYP3A [1]) [ng·h/mL] | Cmax (CYP3A [1]) [ng/mL] | UGT1A4 contribution to clearance ([2]; adults) | FG (intestinal availability) [2] | in vivo k inact (CYP3A [3]) | hepatic intrinsic CL via CYP3A share of clearance [4] [%] | hepatic intrinsic CL via FMO3 share of clearance [4] [%] | renal CL (CLR) share of clearance [4] [%] | increase in the SMN protein (infants with Type 1 SMA) | tolerability ([5]; 14 days, alone and coadministered with midazolam, healthy adults) | AUC(0-t) ([5]; 5 mg) [ng·h/mL] | Cmax ([5]; 5 mg) [ng/mL] | AUC(0-t) ([5]; 8 mg) [ng·h/mL] | Cmax ([5]; 8 mg) [ng/mL] |
| --- | --- | --- | --- | --- | --- | --- | --- | --- | --- | --- | --- | --- | --- | --- |
| Cc1ncc2n1-c1ccc(Cl)cc1C(c1ccccc1F)=NC2 [midazolam] | 19.9 | 7.65 | 1–2% | 0.55 | – | – | – | – | – | – | – | – | – | – |
| Cc1cn2nc(-c3cc(=O)n4cc(N5CCNC6(CC6)C5)ccc4n3)cc(C)c2n1 [risdiplam, Risdiplam] | – | – | – | – | in vivo k inact ^e = 0.22/hour | 20 | 75 | 5 | approximately twofold | well tolerated | 1250 | 78.6 | 1730 | 113 |

— paper PMC9291816 (Clinical Pharmacology and Therapeutics, 2021)
